Patent EP0258134A1, “Therapeutical compositions containing benzhydryl thiomethane derivatives” (LABORATOIRE L. LAFON, priority 1986, dated 1988)
Marks after values point to notes of the source that are not given here.

Legend:
Format in all cases: in vivo
souris [1] = assay: Interaction with apomorphine, mouse
Experimental: Des lots de 6 souris reçoivent le composé CRL 41 334 une demi-heure avant l'injection sous-cutanée d'apomorphine, à la dose de 1 ou 16 mg/kg. • a) Apomorphine 1 mg/kg • b) Apomorphine 16 mg/kg

rat = assay: Interaction with apomorphine, rat; settings: 16 et 64 mg/kg, apomorphine 0,5 mg/kg s.c.
Experimental: Le composé CRL 41 334 est administré à des lots de 6 rats une demi-heure avant l'injection sous-cutanée de 0,5 mg/kg d'apomorphine.
Le CRL 40 956 est administré à des lots de 6 rats une demi-heure avant l'injection sous cutanée de 0,5 mg/kg d'apomorphine.

souris [2] = assay: Interaction with reserpine, mouse
Experimental: Quatre heures après l'injection intrapéritonéale de 2,5 mg/kg de réserpine, des lots de 12 souris reçoivent le composé CRL 41 334. • 1 - Action sur la température • 2 - Action sur le ptosis

souris [3] = assay: Interaction with oxotremorine, mouse; settings: oxotrémorine 0,5 mg/kg i.p.
Experimental: Le composé CRL 41 334 est administré à des lots de 6 souris une demi-heure avant l'injection intrapéritonéale de 0,5 mg/kg d'oxotrémorine.

souris [4] = assay: Four-plate test; settings: half an hour after administration
Excerpt: Le test est pratiqué sur des lots de 10 souris, une demi-heure après l'administration du composé CRL 41 334.

souris [5] = assay: Asphyxic anoxia (gallamine triethiodide); settings: 128 mg/kg, triiodoéthylate de gallamine 32 mg/kg i.p.
Experimental: Des lots de 20 souris reçoivent le composé CRL 41 334 une demi-heure avant l'administration intrapéritonéale de 32 mg/kg de triiodoéthylate de gallamine.
Des lots de 10 souris reçoivent le CRL 40 956 une demi-heure avant l'administration intrapé-ritonéale de 32 mg/kg de triodoéthylate de Gallamine.

souris [6] = assay: Behavioural despair (forced immersion); settings: souris, 8, 32 et 128 mg/kg
Excerpt: Une demi-heure après avoir reçu le composé CRL 41 334, des lots de 6 souris (mâles, CD₁, Charles River) sont placés dans un bécher rempli d'eau sur une hauteur de 6 cm. On note la durée totale d'immobilité entre la 2ème et la 6ème minutes suivant l'immersion.
Une demi-heure après avoir reçu le CRL 40 956, des lots de 10 souris (mâles CD₁ Charles River) sont plongées dans une enceinte réduite remplie d'eau sur une hauteur de 6 cm. On note la durée totale d'immobilité entre la 2ème et la 6ème minute suivant l'immersion.

[7] = tested on: souris femelles de souche OF₁; assay: Delayed hypersensitivity reaction to sheep red blood cells; settings: for Ind. Activité / % d'augmentation du coussinet (mm) m: voie orale; for % d'augmentation du coussinet (mm) m: trois jours avant immunisation
Excerpt: Selon la méthode de Miller, Lagrange et Mackaness ("Immunopotentiation with BCG II modulation of the response to sheep red blood cells", Journal of the National Cancer Institute 1973, 51, 5, 1669 - 1676).
Le composé à tester est administré par voie orale a des souris femelles de souche OF₁ trois jours avant immunisation.
Les résultats sont exprimés en pourcentage d'augmentation du coussinet plantaire.

[8] = souris, 128 mg/kg, réserpine 2,5 mg/kg i.p.

NC(=O)CSC(c1ccc(F)cc1)c1ccc(F)cc1 [CRL 41 334, 2-(4,4ʹ-difluorobenzhydrylthio)acétamide]
hypothermie induite par l'apomorphine (souris [1]; 128 mg/kg, apomorphine 1 mg/kg s.c.): aggrave l'hypothermie induite par l'apomorphine | température (souris [1]; 128 mg/kg, compound alone): entraîne une hypothermie | comportements de verticalisation et de stéréotypies (souris [1]; apomorphine 1 ou 16 mg/kg s.c.): NE SONT PAS MODIFIES | stéréotypies induites par l'apomorphine (rat): potentialise | hypothermie réserpinique (souris [2]; [8]): aggrave modérément l'hypothermie réserpinique | ptosis (souris [2]; [8]): n'est pas modi-fié | hypothermie et ptosis réserpiniques (souris [2]; souris, 8, 32 ou 128 mg/kg, au temps 24 heures): semble s'opposer à l'hypothermie et au ptosis réserpiniques | Action sur la température (souris [3]; 128 mg/kg): aggrave l'hypothermie induite par l'oxotrémorine | Action sur les symptômes chlolinergiques périphériques (souris [3]; 128 mg/kg): diminue la défécation sans modifier la salivation et la lacrymation | Action sur les tremblements (souris [3]): ne sont pas modifiés | nombre de passages punis (souris [4]): ne modifie pas | délai d'apparition de la mort (souris [5]): augmente le délai d'apparition de la mort | délai d'apparition des convulsions (souris [5]): n'est pas modifié | durée de l'immobilité (souris [6]): diminue la durée de l'immobilité | Ind. Activité ([7]; Exp 1, 0,1 mg/kg): 1,15 | % d'augmentation du coussinet (mm) m ([7]; Exp 1, 0,1 mg/kg): 10,6% | Ind. Activité ([7]; Exp 1, 1 mg/kg): 1,10 | % d'augmentation du coussinet (mm) m ([7]; Exp 1, 1 mg/kg): 10,2% | Ind. Activité ([7]; Exp 1, 10 mg/kg): 1,29 | % d'augmentation du coussinet (mm) m ([7]; Exp 1, 10 mg/kg): 12,0% | Ind. Activité ([7]; Exp 1, 100 mg/kg): 1,59 | % d'augmentation du coussinet (mm) m ([7]; Exp 1, 100 mg/kg): 14,7^x % | Ind. Activité ([7]; Exp 2, 0,1 mg/kg): 1,31 | % d'augmentation du coussinet (mm) m ([7]; Exp 2, 0,1 mg/kg): 11,0% | Ind. Activité ([7]; Exp 2, 1 mg/kg): 1,25 | % d'augmentation du coussinet (mm) m ([7]; Exp 2, 1 mg/kg): 10,5% | Ind. Activité ([7]; Exp 2, 10 mg/kg): 1,34 | % d'augmentation du coussinet (mm) m ([7]; Exp 2, 10 mg/kg): 11,2% | Ind. Activité ([7]; Exp 2, 100 mg/kg): 1,56 | % d'augmentation du coussinet (mm) m ([7]; Exp 2, 100 mg/kg): 13,1% | action immunostimulante ([7]; overall statement in the text): une action immunostimulante
